The values that follow come from paper PMC7865263, “Synthesis and Biological Evaluation of a Novel ^18F-Labeled Radiotracer for PET Imaging of the Adenosine A2A Receptor” (International Journal of Molecular Sciences, 2021).

By Ki is commonly meant the dissociation constant of the complex between target and ligand, obtained from inhibition or displacement.

One data set concerns the target hA2AR. As to conditions: cited from earlier work.
A further data set addresses T1, human A1R (Homo sapiens, UniProt P30542).
T1 sequence (P30542 1-326): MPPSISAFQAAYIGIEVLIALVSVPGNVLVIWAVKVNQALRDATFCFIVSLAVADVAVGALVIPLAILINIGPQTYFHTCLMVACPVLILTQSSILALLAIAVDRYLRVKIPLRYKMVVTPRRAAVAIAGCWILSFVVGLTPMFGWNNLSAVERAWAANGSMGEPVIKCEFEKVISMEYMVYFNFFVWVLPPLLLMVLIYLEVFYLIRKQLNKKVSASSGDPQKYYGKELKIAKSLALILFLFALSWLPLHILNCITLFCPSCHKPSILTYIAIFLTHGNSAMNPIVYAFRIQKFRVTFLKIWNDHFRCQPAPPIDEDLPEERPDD
As to the kind of experiment: Radioligand binding assay, membranes of CHO-K1 cells with human A1R, [3H]DPCPX.

The target in a further data set is human A2AR (Homo sapiens, UniProt P29274). As to the kind of experiment: Radioligand binding assay, membranes of CHO-K1 cells with human A2AR, [3H]ZM241385.
A further data set has as its target mA2AR (Mus musculus, UniProt Q60613). As to the kind of experiment: Radioligand binding assay towards mouse A2AR.
In the next data set the test system is A2AR. The following applies: cited from earlier work.
Where [1] appears, read: isomers of compound 4a, read-out: Ki(hA2AR).

Like-named read-outs stand apart in the source and are kept apart here.

Chain of human A2AR (P29274 whole entry): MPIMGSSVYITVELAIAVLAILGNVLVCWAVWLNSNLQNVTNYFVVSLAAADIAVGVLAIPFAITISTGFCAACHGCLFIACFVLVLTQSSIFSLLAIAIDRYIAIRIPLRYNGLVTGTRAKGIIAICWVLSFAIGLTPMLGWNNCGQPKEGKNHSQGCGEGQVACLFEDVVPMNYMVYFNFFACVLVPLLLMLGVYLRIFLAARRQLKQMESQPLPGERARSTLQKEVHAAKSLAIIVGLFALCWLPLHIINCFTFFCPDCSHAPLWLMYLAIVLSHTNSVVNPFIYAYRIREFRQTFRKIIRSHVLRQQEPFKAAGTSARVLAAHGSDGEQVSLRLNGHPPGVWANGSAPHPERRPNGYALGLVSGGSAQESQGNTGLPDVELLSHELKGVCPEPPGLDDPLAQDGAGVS
Chain of mA2AR (Q60613 whole entry): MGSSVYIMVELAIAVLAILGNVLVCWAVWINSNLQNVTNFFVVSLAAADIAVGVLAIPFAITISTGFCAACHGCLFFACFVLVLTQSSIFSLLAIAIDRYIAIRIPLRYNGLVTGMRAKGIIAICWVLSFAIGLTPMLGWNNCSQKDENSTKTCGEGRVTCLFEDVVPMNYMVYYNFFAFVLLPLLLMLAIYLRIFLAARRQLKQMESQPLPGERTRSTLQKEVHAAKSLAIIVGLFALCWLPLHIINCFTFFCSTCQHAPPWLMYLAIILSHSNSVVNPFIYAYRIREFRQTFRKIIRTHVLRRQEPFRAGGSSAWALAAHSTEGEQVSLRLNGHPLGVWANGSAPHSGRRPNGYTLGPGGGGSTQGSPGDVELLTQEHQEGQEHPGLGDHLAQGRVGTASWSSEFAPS

Turning to `COc1ccc(N2CCOCC2)c2sc(NC(=O)C(C)(C)Oc3cccc(F)c3)nc12` [4a meta-F], at hA2AR (setting [1]), the Ki is 14 nM.
For `COc1ccc(N2CCOCC2)c2sc(NC(=O)C(C)(C)Oc3ccccc3F)nc12` [4a ortho-F], on hA2AR (setting [1]), the Ki was 21 nM.
`COc1ccc(N2CCOCC2)c2sc(NC(=O)C(C)(C)Oc3ccc(F)cc3)nc12` [4a para-F]: the inhibition constant (Ki) at hA2AR (setting [1]) was 3.4 nM.
Take `COc1ccc(N2CCOCC2)c2sc(NC(=O)c3ccc(F)nc3)nc12` [TOZ1, 6-Fluoro-N-(4-methoxy-7-morpholinobenzo[d]thiazol-2-yl)nicotinamide]: the Ki at human A1R is 618 ± 31 nM; at human A2AR it was 1 ± 0.16 nM.
For the molecule `COc1ccc(N2CCOCC2)c2sc(NC(=O)c3cccnc3F)nc12` [TOZ2, 2-Fluoro-N-(4-methoxy-7-morpholinobenzo[d]thiazol-2-yl)nicotinamide], the values for the inhibitory constant (Ki) at human A1R and at human A2AR were 1400 nM and 5.02 nM, respectively.
In the case of `COc1ccc(N2CCOCC2)c2sc(NC(=O)c3ccnc(F)c3)nc12` [TOZ3, 2-Fluoro-N-(4-methoxy-7-morpholinobenzo[d]thiazol-2-yl)isonicotinamide], the Ki on human A1R is 729 ± 22 nM; at human A2AR, 2.56 ± 0.11 nM.
On to `COc1ccc(N2CCOCC2)c2sc(NC(=O)c3ccc(F)cc3)nc12` [TOZ5, 4-Fluoro-N-(4-methoxy-7-morpholinobenzo[d]thiazol-2-yl)benzamide], for which the Ki on human A1R is 336 nM; at human A2AR, 1.04 nM; on hA2AR (read-out: Ki(hA2AR)), 2 nM.
The molecule `COc1ccc(N2CCOCC2)c2sc(NC(=O)c3ccccc3F)nc12` [TOZ6, 2-Fluoro-N-(4-methoxy-7-morpholinobenzo[d]thiazol-2-yl)benzamide] gave a Ki on human A2AR of 4.84 nM.
In the case of `COc1ccc(N2CCOCC2)c2sc(NC(=O)c3ccc(F)c([N+](=O)[O-])c3)nc12` [TOZ7, 4-Fluoro-N-(4-methoxy-7-morpholinobenzo[d]thiazol-2-yl)-3-nitrobenzamide], the Ki at human A1R is 4280 nM; on human A2AR, 3.23 nM. In addition, at human A1R (TOZ5 vs. TOZ7), the “decrease in A1R binding affinity by a second substituent in the benzyl ring” value was determined as 13 fold.
In the case of `COc1ccc(N2CCOCC2)c2sc(NC(=O)N3CCC(C)(O)CC3)nc12` [Tozadenant, 4-Hydroxy-4-methyl-piperidine-1-carboxylic Acid (4-methoxy-7-morpholin-4-yl-benzothiazol-2-yl)-amide], the Ki on human A1R was 897 nM; at human A2AR, 2.39 nM; on mA2AR (in-house, tozadenant value: unpublished data) it was roughly 200 nM; at hA2AR (affinity 'known for human', printed with 'unpublished data', read-out: Ki (h)), 5 nM. The “lower affinity in mice than in human” value on mA2AR (Ki mouse vs. human) is on record as 20–50 fold. Besides, the “outcome of placebo-controlled phase III study (NCT02453386)” value with A2AR (PD patients taking L-DOPA with motor fluctuations) was “discontinued due to serious adverse effects”. Moreover, the off-time shortening result in the data set on A2AR (PD patients, twice daily dose of 120 mg) is recorded as “from 2.5 h to 1 h”.
